In patent US20210137951A1, “DRUG COMBINATION FOR TREATMENT OF AMYOTROPHIC LATERAL SCLEROSIS, PREPARATION METHOD AND USE THEREOF” (priority 2018, published 2021):

Key:
[1] = tested on: hSOD1-G93A transgenic mice; test: Number of mice surviving more than 120 days; format: in vivo; details: intragastric once a day for 4 weeks, 40 mg/kg (positive control 2 mg/kg), 8-9 mice per group
Method: (§1) 10 two-months wild-type BALB/C mice were used as the normal control group, and 110 two-months hSOD1-G93A transgenic mice were randomly divided into 11 groups, 10 mice for each group, and 11 groups are blank group, positive control group, the drug compositions 1-3 of the present invention groups, and the control 1-6 groups, respectively.
All mice were adaptively fed for three weeks, and a rotating rod experiment was performed once a week. The diameter of the rotating rod was 3.5 cm, and its rotating speed was 12 r/min. Experiment on each mouse was carried out three times in parallel, with a 5 min interval. The longest time recorded was the fall time of mice, the mice with a fall time of shorter than 7 min in the third rotating rod experiment were excluded, and then mice received drugs by intragastric administration, in which the normal control group and the blank group were given physiological saline, while the positive control group, the drug combinations 1-3 groups, and the control groups 1-6 were given corresponding drugs, with the volume of 0.5 ml. Amongst, the gavage dose of positive control group was 2 mg/kg body weight, and the gavage dose of drug combinations 1-3 and controls 1-6 groups was both 40 mg/kg body weight. […] In one experiment, each mouse was tested 3 times at interval of 5 minutes, and the longest time recorded was the fall time of mice. […]

[2] = tested on: hSOD1-G93A transgenic mice; format: in vivo; details: for Effect on delaying the progression of amyotrophic lateral sclerosis (in words): judged from fall time and mice surviving more than 120 days; for Falling time (s) On 1st day of gavage / Falling time (s) On 7th day of gavage / Falling time (s) On 14th day of gavage / Falling time (s) On 21th day of gavage / Falling time (s) On 28th day of gavage: intragastric once a day, 40 mg/kg (positive control 2 mg/kg), rod 12 r/min, cut-off 10 min; for Falling time (s) On 1st day of gavage: 1 h after 1st administration; for Falling time (s) On 7th day of gavage: 1 h after 7th administration; for Falling time (s) On 14th day of gavage: 1 h after 14th administration; for Falling time (s) On 21th day of gavage: 1 h after 21st administration; for Falling time (s) On 28th day of gavage: 1 h after 28th administration
Method: as §1
All mice were adaptively fed for three weeks, and a rotating rod experiment was performed once a week. The diameter of the rotating rod was 3.5 cm, and its rotating speed was 12 r/min. Experiment on each mouse was carried out three times in parallel, with a 5 min interval. The longest time recorded was the fall time of mice, the mice with a fall time of shorter than 7 min in the third rotating rod experiment were excluded, and then mice received drugs by intragastric administration, in which the normal control group and the blank group were given physiological saline, while the positive control group, the drug combinations 1-3 groups, and the control groups 1-6 were given corresponding drugs, with the volume of 0.5 ml. Amongst, the gavage dose of positive control group was 2 mg/kg body weight, and the gavage dose of drug combinations 1-3 and controls 1-6 groups was both 40 mg/kg body weight. For all of groups, drugs were given once a day for 4 weeks. After 1 h of the 1st, 7th, 14th, 21st, and 28th intragastric administrations, a stick-rotation experiment was performed. In one experiment, each mouse was tested 3 times at interval of 5 minutes, and the longest time recorded was the fall time of mice. […] After the 28th gavage, the mice were continually fed, and the number of mice surviving for more than 120 days in each group was recorded, in which if they were placed in the supine position, the mice could not turn to the prone position within 30 S, and thus they were determined as dead.

Row | Compound | Survival numbers (number of mice surviving for more than 120 days) [1] | Effect on delaying the progression of amyotrophic lateral sclerosis (in words) ([2]; gavage 4 weeks) | Falling time (s) On 1st day of gavage [2] [s] | Falling time (s) On 7th day of gavage [2] [s] | Falling time (s) On 14th day of gavage [2] [s] | Falling time (s) On 21th day of gavage [2] [s] | Falling time (s) On 28th day of gavage [2] [s] | Indexes for the fall time and the number of mice surviving more than 120 days, comparison between groups (in words) ([2]; gavage 4 weeks)
1 | O=C(/C=C/c1ccc(O)c(O)c1)O[C@@H]1C[C@](O)(C(=O)O)C[C@@H](O)[C@H]1O [Control 1, 3-O-caffeoylquinic acid] | 3 | showed to some extent the effect on delaying the progression of amyotrophic lateral sclerosis | 468.9 ± 26.1 | 315.3 ± 27.6 | 221.5 ± 22.8 | 127.8 ± 19.5 | 89.1 ± 18.5 | 
2 | Nc1nc2ccc(OC(F)(F)F)cc2s1 [Positive control, Riluzole] |  |  | 479.2 ± 31.8 | 389.5 ± 27.7 | 259.3 ± 29.5 | 187.4 ± 17.5 | 129.3 ± 15.4 | 
3 | creatine phosphate sodium [Control 6] | 2 | don't have obvious effect on delaying the progression of this disease | 475.8 ± 22.8 | 284.6 ± 19.3 | 155.8 ± 24.8 | 71.3 ± 12.3 | 44.78 ± 11.3 | roughly equivalent to those in the blank group
